Laboratory results as given in PubChem BioAssay AID214 (DTP/NCI, 2004).
“And” between values parts separate entries of the source, which are not always exact repeats. Equal entries are not always repeated. Inconclusive results are not listed.

Test system: B6C3F1 mice, colon carcinoma 38 s.c., T/C
Assay: NCI In Vivo Anticancer Drug Screen. Data for tumor model Colon Carcinoma 38 (subcutaneous) in B6C3F1 mice
Details: endpoint: median tumor weight (est.), higher = larger tumour
Procedure: The antitumor activity of compounds was measured in mice bearing transplantable tumors. Survival or tumor size were measured and the results are expressed as the measurement made in the treated group (T) divided by the measurement made in the vehicle treated control group (C). The tumor model used in this assay is Colon Carcinoma 38 (subcutaneous) in B6C3F1 mice

[1] = dose: 75.0 mg/kg/injection, schedule: Q07DX002 (ip), vehicle: saline
[2] = dose: 150.0 mg/kg/injection, schedule: Q07DX002 (ip), vehicle: saline
[3] = dose: 300.0 mg/kg/injection, schedule: Q07DX002 (ip), vehicle: saline
[4] = dose: 600.0 mg/kg/injection, schedule: Q07DX002 (ip), vehicle: saline
[5] = dose: 1200.0 mg/kg/injection, schedule: Q07DX002 (ip), vehicle: saline
[6] = dose: 200.0 mg/kg/injection, schedule: Q07DX002 (ip), vehicle: saline with Tween-80
[7] = dose: 50.0 mg/kg/injection, schedule: Q07DX002 (ip), vehicle: saline with Tween-80
[8] = dose: 100.0 mg/kg/injection, schedule: Q07DX002 (ip), vehicle: saline with Tween-80
[9] = dose: 400.0 mg/kg/injection, schedule: Q07DX002 (ip), vehicle: saline with Tween-80
[10] = dose: 12.5 mg/kg/injection, schedule: Q07DX002 (ip), vehicle: saline
[11] = dose: 25.0 mg/kg/injection, schedule: Q07DX002 (ip), vehicle: saline
[12] = dose: 50.0 mg/kg/injection, schedule: Q07DX002 (ip), vehicle: saline
[13] = dose: 100.0 mg/kg/injection, schedule: Q07DX002 (ip), vehicle: saline
[14] = dose: 25.0 mg/kg/injection, schedule: Q07DX002 (ip), vehicle: saline with Tween-80

Question: How did the T/C [1] turn out when `OCC(O)C(O)C(O)C(O)CO` (configuration not stated) was run?
Answer: The T/C was 90 % of control.

Question: What about the T/C [2] of the same molecule?
Answer: The T/C was 66 % of control.

Question: What about the T/C [3] of the same molecule?
Answer: Its T/C is 111 % of control.

Question: What about the T/C [4] of the same molecule?
Answer: Its T/C is 92 % of control.

Question: What about the T/C [5] of the same molecule?
Answer: The T/C was 86 % of control.

Question: `CC1(C)OCC2OC=CC(=O)C2O1` (configuration not stated) was tested. Which T/C [6] did it give?
Answer: The T/C was 222 % of control.

Question: For `COc1cc2c(ccc3c4cc(OC)c(OC)cc4c[n+](C)c23)cc1O`, which T/C (dose: 100.0 mg/kg/injection, schedule: Q07DX002 (ip), vehicle: suspension in saline) is on record?
Answer: The T/C was 89 % of control.

Question: And the T/C (dose: 200.0 mg/kg/injection, schedule: Q07DX002 (ip), vehicle: suspension in saline)?
Answer: Its T/C is 81 % of control.

Question: How did the T/C [7] turn out when `O=C1SC(c2ccccc2)=S=C1c1ccccc1` was run?
Answer: The T/C was 152 % of control.

Question: And the T/C [8]?
Answer: The T/C was 114 % of control.

Question: And the T/C [6]?
Answer: Its T/C is 104 % of control.

Question: What about the T/C [9] of the same molecule?
Answer: Its T/C is 120 % of control.

Question: And the T/C (dose: 800.0 mg/kg/injection, schedule: Q07DX002 (ip), vehicle: saline with Tween-80)?
Answer: The T/C was 104 % of control.

Question: Which results are given for `O=C(C/C(=N\C(=S)Nc1cc(C(F)(F)F)ccc1Cl)NO)N1CCCC1`?
Answer: T/C [7]: 85 % of control; T/C [8]: 57 % of control; T/C [6]: 70 % of control; T/C [9]: 100 % of control

Question: For `CCCCCCCCCCCCCCCCCCOCC(COP(=O)([O-])OCC[N+](C)(C)C)OC` (configuration not stated), which T/C [10] is on record?
Answer: Its T/C is 122 % of control.

Question: And the T/C [11]?
Answer: The T/C was 119 % of control.

Question: And the T/C [12]?
Answer: The T/C was 89 % of control.

Question: What about the T/C [13] of the same molecule?
Answer: The T/C was 73 % of control.

Question: With `CCC(NC(N)=O)C(CC)NC(N)=O` (configuration not stated) as the molecule, how does the T/C [14] read?
Answer: Its T/C is 83 % of control.

Question: What about the T/C [7] of the same molecule?
Answer: Its T/C is 88 % of control.

Question: And the T/C [8]?
Answer: Its T/C is 81 % of control.

Question: `O=NN(CCF)C(=O)NC1CCCCC1` was tested. Which T/C (dose: 6.25 mg/kg/injection, schedule: Q07DX002 (ip), vehicle: Klucel (hydroxypropylcellulose) (HPC)) did it give?
Answer: Its T/C is 115 % of control.

Question: What about the T/C (dose: 25.0 mg/kg/injection, schedule: Q07DX002 (ip), vehicle: Klucel (hydroxypropylcellulose) (HPC)) of the same molecule?
Answer: The T/C was 77 % of control.

Question: How did the T/C (dose: 12.5 mg/kg/injection, schedule: Q07DX002 (ip), vehicle: saline with Tween-80) turn out when `NS(=O)(=O)OCCCCCCCOS(N)(=O)=O` was run?
Answer: The T/C was 214 % of control.

Question: What about the T/C [14] of the same molecule?
Answer: Its T/C is 270 % of control.

Question: What about the T/C [7] of the same molecule?
Answer: Its T/C is 192 % of control.

Question: And the T/C [8]?
Answer: Its T/C is 94 % of control.

Question: What about the T/C [6] of the same molecule?
Answer: The T/C was 104 % of control.

Question: `O=P1(NCCCl)OCCCN1CCCl` (configuration not stated) was tested. Which T/C (dose: 30.0 mg/kg/injection, schedule: Q01DX006 (ip), vehicle: saline) did it give?
Answer: The T/C was 61 % of control.

Question: With `O=C(O)C(O)C(O)C1[O][Sb][O]C1C(=O)O` (configuration not stated) as the molecule, how does the T/C [10] read?
Answer: The T/C was 76 % of control.

Question: What about the T/C [11] of the same molecule?
Answer: The T/C was 84 % of control.

Question: What about the T/C [12] of the same molecule?
Answer: Its T/C is 123 % of control.

Question: What about the T/C [13] of the same molecule?
Answer: Its T/C is 107 % of control.

Question: Which results are given for `O=C1[C@H]2CCC[C@H]2[C@H]2CCC[C@@H]12`?
Answer: T/C [14]: 106 % of control and 109 % of control; T/C [7]: 95 % of control and 107 % of control; T/C [8]: 41 % of control; T/C [6]: 100 % of control and 116 % of control; T/C [9]: 104 % of control

Question: Which results are given for `O=C(O)COc1cccc2c(=O)cc(-c3ccccc3)oc12`?
Answer: T/C [13]: 52 % of control; T/C (dose: 200.0 mg/kg/injection, schedule: Q07DX002 (ip), vehicle: saline): 109 % of control

Question: How did the T/C [1] turn out when `O=CC(O)C(O)C(O)C(O)CO` (configuration not stated) was run?
Answer: The T/C was 106 % of control.

Question: What about the T/C [2] of the same molecule?
Answer: The T/C was 79 % of control.

Question: What about the T/C [3] of the same molecule?
Answer: Its T/C is 66 % of control.

Question: What about the T/C [4] of the same molecule?
Answer: The T/C was 94 % of control.

Question: And the T/C [5]?
Answer: Its T/C is 110 % of control.

Question: What does the source list for `CCOC(=O)C(N)C[S][Sn]([CH3])([CH3])[Cl]` (configuration not stated)?
Answer: T/C (dose: 6.25 mg/kg/injection, schedule: Q07DX002 (ip), vehicle: saline): 123 % of control; T/C [10]: 61 % of control; T/C [11]: 90 % of control; T/C [12]: 110 % of control
